The target of the experiment is T1, IGF-1R (Homo sapiens, UniProt P08069).
T1 construct: expressed in transfected cells; host or cells: Hek293 (Hek293-IGF1R)
Put plainly: Cellular IGF-1R assay: capture ELISA (MSD) of receptor phosphorylation in Hek293 cells. It is filed as cell-based. The note with it: Hek293-IGF1R cells, 1 h pre-incubation, 10 min IGF stimulation, pIGF1R capture ELISA. Put shortly: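 IC50 from 4-parameter fit of IGF1R phosphorylation, normalised to IGF-stimulated and unstimulated controls, measured by MSD capture ELISA on lysates. Hek293-IGF1R cells in starvation medium got compound 1 h (top 10 μM, 3-fold steps, 0.1% DMSO) before a 10 min pulse of 1.0 ng/μL IGF.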

T1 sequence (P08069 31-1367): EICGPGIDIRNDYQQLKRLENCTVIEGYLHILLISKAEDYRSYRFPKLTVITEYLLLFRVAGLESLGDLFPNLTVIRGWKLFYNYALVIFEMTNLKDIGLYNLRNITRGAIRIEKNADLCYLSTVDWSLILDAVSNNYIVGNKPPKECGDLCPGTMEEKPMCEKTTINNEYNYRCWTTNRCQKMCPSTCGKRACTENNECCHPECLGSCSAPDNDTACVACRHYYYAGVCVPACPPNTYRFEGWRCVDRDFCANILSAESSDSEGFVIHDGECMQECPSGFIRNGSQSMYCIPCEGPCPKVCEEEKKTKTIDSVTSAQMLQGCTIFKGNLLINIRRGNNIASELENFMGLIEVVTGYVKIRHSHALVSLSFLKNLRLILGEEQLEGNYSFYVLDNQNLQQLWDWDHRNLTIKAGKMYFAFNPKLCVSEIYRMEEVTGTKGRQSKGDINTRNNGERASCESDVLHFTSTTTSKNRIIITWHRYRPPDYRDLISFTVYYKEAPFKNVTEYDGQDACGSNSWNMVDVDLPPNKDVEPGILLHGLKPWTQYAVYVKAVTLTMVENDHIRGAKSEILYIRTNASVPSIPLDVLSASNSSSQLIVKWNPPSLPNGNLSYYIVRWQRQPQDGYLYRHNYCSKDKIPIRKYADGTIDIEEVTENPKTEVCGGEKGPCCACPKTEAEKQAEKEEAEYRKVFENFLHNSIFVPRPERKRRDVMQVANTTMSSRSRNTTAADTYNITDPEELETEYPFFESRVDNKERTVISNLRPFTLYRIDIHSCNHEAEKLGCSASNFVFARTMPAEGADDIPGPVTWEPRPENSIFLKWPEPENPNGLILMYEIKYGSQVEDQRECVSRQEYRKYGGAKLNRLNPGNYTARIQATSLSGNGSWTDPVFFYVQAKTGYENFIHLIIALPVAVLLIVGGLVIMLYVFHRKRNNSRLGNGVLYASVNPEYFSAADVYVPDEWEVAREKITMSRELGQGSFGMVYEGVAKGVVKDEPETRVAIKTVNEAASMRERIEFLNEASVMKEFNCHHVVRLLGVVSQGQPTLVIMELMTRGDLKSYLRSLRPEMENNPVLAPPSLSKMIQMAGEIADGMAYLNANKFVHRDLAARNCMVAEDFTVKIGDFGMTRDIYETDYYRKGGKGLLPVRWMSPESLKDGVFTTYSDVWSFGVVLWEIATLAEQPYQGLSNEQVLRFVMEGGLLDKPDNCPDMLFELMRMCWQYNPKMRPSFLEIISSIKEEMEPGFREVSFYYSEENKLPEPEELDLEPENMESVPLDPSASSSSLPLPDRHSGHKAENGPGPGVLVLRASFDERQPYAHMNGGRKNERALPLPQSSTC

`Cc1nccn1C[C@H]1C[C@@H](n2cc(-c3cccc(OCC4CCCCO4)c3)c3c(N)ncnc32)C1` (relative stereo) [Example 154, 7-[cis-3-(2-methyl-imidazol-1-ylmethyl)-cyclobutyl]-5-[3-(tetrahydro-pyran-2-ylmethoxy)-phenyl]-7H-pyrrolo[2,3-d]pyrimidin-4-ylamine]: the midpoint of inhibition, the IC50, lay at 0.071 µM.

`CC1(C(N)=O)CCCN1CC1CC(n2cc(-c3cccc(OCC45CCC(CC4)O5)c3)c3c(N)ncnc32)C1` [Example 101, (S)-1-(((1S,3R)-3-(5-(3-(7-oxabicyclo[2.2.1]heptan-1-ylmethoxy)phenyl)-4-amino-7H-pyrrolo[2,3-d]pyrimidin-7-yl)cyclobutyl)methyl)-2-methylpyrrolidine-2-carboxamide] returned an IC50 of 0.008 µM.

Consider `NC[C@H]1CC[C@@H](n2cc(-c3cccc(OCC45CCC(CC4)O5)c3)c3c(N)ncnc32)CC1` [Example 134, 5-(3-(7-oxabicyclo[2.2.1]heptan-1-ylmethoxy)phenyl)-7-((1S,4S)-4-(aminomethyl)cyclohexyl)-7H-pyrrolo[2,3-d]pyrimidin-4-amine], for which the IC50 was determined as 0.227 µM.

Consider `CC1CCC(COc2cccc(-c3cn(C4CC(CN5CCC5)C4)c4ncnc(N)c34)c2)O1` (single isomer, unassigned) [Example 6, cis-(RR and SS)-7-(3-azetidin-1-ylmethyl-cyclobutyl)-5-[3-(5-methyl-tetrahydro-furan-2-ylmethoxy)-phenyl]-7H-pyrrolo[2,3-d]pyrimidin-4-ylamine], for which the midpoint of inhibition, the IC50, lay at 0.03 µM.

In turn, “7-[cis-3-(N-methylcarboxy-amino-methyl)-cyclobutyl]-5-3-(7-oxa-bicyclo[2.2.1]hept-1-ylmethoxy)-phenyl]-7H-pyrrolo[2,3-d]pyrimidin-4-ylamine [Example 177]” came in with an IC50 of 0.138 µM.

With `Nc1ncnc2c1c(-c1cccc(OCC34CCC(CC3)O4)c1)cn2[C@H]1CC[C@H](N2CC[C@@H](F)C2)CC1` [Example 125, 5-(3-(7-oxabicyclo[2.2.1]heptan-1-ylmethoxy)phenyl)-7-((1R,4S)-4-((R)-3-fluoropyrrolidin-1-yl)cyclohexyl)-7H-pyrrolo[2,3-d]pyrimidin-4-amine], half-maximal inhibition (IC50) was put at 0.419 µM.

Turning to “7-[cis-3-(2-hydroxymethyl-imidazol-1-ylmethyl)-cyclobutyl]-53-(7-oxa-bicyclo[2.2.1]hept-1-ylmethoxy)--phenyl]-7H-pyrrolo[2,3-d]pyrimidin-4-ylamine [Example 176]”, inhibition was half-maximal at 0.149 µM (IC50).

As to `CC1(C)CCC(COc2cccc(-c3cn([C@H]4C[C@@H](CN5CCC(F)(F)CC5)C4)c4ncnc(N)c34)c2)O1` (single isomer, unassigned) [Example 55], the half-inhibitory concentration (IC50) was in the range of 0.022 to 0.038 µM.

Compound `Nc1ncnc2c1c(-c1cccc(OCC34CCC(CC3)O4)c1)cn2C1CCC2(CC1)CNC(=O)O2` (stereo not shown) [Example 139, 8-(5-(3-(7-oxabicyclo[2.2.1]heptan-1-ylmethoxy)phenyl)-4-amino-7H-pyrrolo[2,3-d]pyrimidin-7-yl)-1-oxa-3-azaspiro[4.5]decan-2-one] returned a half-maximal inhibitory concentration (IC50) of 0.543 µM.

As for `Nc1ncnc2c1c(-c1cccc(OCC34CCC(CC3)O4)c1)cn2[C@H]1CC[C@@H](n2ccnc2)CC1` [Example 138, 7-((1S,4S)-4-(1H-imidazol-1-yl)cyclohexyl)-5-(3-(7-oxabicyclo[2.2.1]heptan-1-ylmethoxy)phenyl)-7H-pyrrolo[2,3-d]pyrimidin-4-amine], it took 0.241 µM to reach half-maximal inhibition (IC50).

Turning to `CC(=O)N1CC2CC1CN2[C@H]1C[C@@H](n2cc(-c3cccc(OCC45CCC(CC4)O5)c3)c3c(N)ncnc32)C1` (relative stereo) [Example 173, 1-[5-(cis-3-{4-amino-5-[3-(7-oxa-bicyclo[2.2.1]hept-1-ylmethoxy)-phenyl]-pyrrolo[2,3-d]pyrimidin-7-yl}-cyclobutyl)-2,5-diaza-bicyclo[2.2.1]hept-2-yl]-ethanone], the midpoint of inhibition, the IC50, lay at 0.182 µM.

In the case of `CC(C)C(=O)NCC1CC(n2cc(-c3cccc(OCC45CCC(CC4)O5)c3)c3c(N)ncnc32)C1` (stereo not shown) [Example 164, N-(3-{4-amino-5-[3-(7-oxa-bicyclo[2.2.1]hept-1-ylmethoxy)-phenyl]-pyrrolo[2,3-d]pyrimidin-7-yl}-cyclobutylmethyl)-isobutyramide], half-maximal inhibition (IC50) required 0.143 µM.

Regarding `Nc1ncnc2c1c(-c1cccc(OCC34CCC(CC3)O4)c1)cn2[C@H]1C[C@@H](N2CC[S+]([O-])CC2)C1` (relative stereo) [Example 232, 5-[3-(7-Oxa-bicyclo[2.2.1]hept-1-ylmethoxy)-phenyl]-7-[cis-3-(1-oxo-thiomorpholin-4-yl)-cyclobutyl]-7H-pyrrolo[2,3-d]pyrimidin-4-ylamine], the IC50 was 0.035 to 0.038 µM.

On to `Nc1ncnc2c1c(-c1cccc(OCC34CCC(CC3)O4)c1)cn2[C@H]1CC[C@@H](CN2CC[C@@H](O)C2)CC1` [Example 124], for which the 50% inhibitory concentration (IC50) stood at 0.025 µM.

In turn, `Cc1nccn1C[C@H]1C[C@@H](n2cc(-c3cccc(OCC45CCC(C)(CC4)O5)c3)c3c(N)ncnc32)C1` (relative stereo) [Example 157, 7-[cis-3-(2-methyl-imidazol-1-ylmethyl)-cyclobutyl]-5-[3-(4-methyl-7-oxa-bicyclo[2.2.1]hept-1-ylmethoxy)-phenyl]-7H-pyrrolo[2,3-d]pyrimidin-4-ylamine] had a concentration for half-maximal inhibition (IC50) of 0.106 to 0.448 µM.

The compound `Nc1ncnc2c1c(-c1cccc(OCC3CCCCO3)c1)cn2[C@H]1C[C@H](CN2CC(O)C2)C1` (relative stereo) [Example 36, 1-(trans-3-{4-amino-5-[3-(tetrahydro-pyran-2-ylmethoxy)-phenyl]pyrrolo[2,3-d]pyrimidin-7-yl}-cyclobutylmethyl)-azetidin-3-ol] showed a half-inhibitory concentration (IC50) of 0.372 µM.

Regarding `CC1(C)CCC(COc2cccc(-c3cn(C4CC(CN5CCC(O)C5)C4)c4ncnc(N)c34)c2)O1` [Example 57, (S)-1-(3-{4-amino-5-[3-(5,5-dimethyl-tetrahydro-furan-2-ylmethoxy)-phenyl]-5 pyrrolo[2,3-d]pyrimidin-7-yl}-cyclobutylmethyl)-pyrrolidin-3-ol], the IC50 was determined as 0.015 µM.

As for `NC(=O)[C@H]1[C@@H](O)CCN1C[C@H]1C[C@@H](n2cc(-c3cccc(OCC4CCCCO4)c3)c3c(N)ncnc32)C1` (stereo partly drawn) [Example 56, (2R,3S)-1-(cis-3-{4-amino-5-[3-(tetrahydro-pyran-2-ylmethoxy)-phenyl]-pyrrolo[2,3d]pyrimidin-7-yl}-cyclobutylmethyl)-3-hydroxy-pyrrolidine-2-carboxylic acid amide], the IC50 was 0.097 µM.

For `NC(=O)[C@H]1CCCN1C[C@H]1C[C@@H](n2cc(-c3cccc(OCC4CCCCO4)c3)c3c(N)ncnc32)C1` (stereo partly drawn) [Example 29, (R)-1-(cis-3-{4-amino-5-[3-(tetrahydro-pyran-2-ylmethoxy)-phenyl]-pyrrolo[2,3-d]pyrimidin-7-yl}-cyclobutylmethyl)-pyrrolidine-2-carboxylic acid amide], the IC50 fell in the range of 0.149 to 0.152 µM.

`CCNC(=O)NCC1CC(n2cc(-c3cccc(OCC45CCC(CC4)O5)c3)c3c(N)ncnc32)C1` (stereo not shown) [Example 163, 1-(3-{4-amino-5-[3-(7-oxa-bicyclo[2.2.1]hept-1-ylmethoxy)-phenyl]-pyrrolo[2,3-d]pyrimidin-7-yl}-cyclobutylmethyl)-3-ethyl-urea]: 0.153 µM corresponded to half-maximal inhibition (IC50).

`Nc1ncnc2c1c(-c1cccc(OCC34CCC(CC3)O4)c1)cn2C1CCC(c2cnco2)CC1` [Example 150, 5-(3-(7-oxabicyclo[2.2.1]heptan-1-ylmethoxy)phenyl)-7-((1S,4S)-4-(oxazol-5-yl)cyclohexyl)-7H-pyrrolo[2,3-d]pyrimidin-4-amine] yielded an IC50 of 0.335 µM.

`CC(=O)N[C@H]1CC[C@@H](n2cc(-c3cccc(OCC45CCC(CC4)O5)c3)c3c(N)ncnc32)CC1` [Example 133, N-((1S,4S)-4-(5-(3-(7-oxabicyclo[2.2.1]heptan-1-ylmethoxy)phenyl)-4-amino-7H-pyrrolo[2,3-d]pyrimidin-7-yl)cyclohexyl)acetamide] displayed an IC50 of 0.238 µM.

As to `Nc1ncnc2c1c(-c1cccc(OCC34CCC(CC3)O4)c1)cn2[C@H]1CC[C@@H](N2CC[C@@H](O)C2)CC1` [Example 128, (R)-1-((1S,4S)-4-(5-(3-(7-oxabicyclo[2.2.1]heptan-1-ylmethoxy)phenyl)-4-amino-7H-pyrrolo[2,3-d]pyrimidin-7-yl)cyclohexyl)pyrrolidin-3-ol], the half-maximal inhibitory concentration (IC50) was 0.15 µM.

For `Nc1ncnc2c1c(-c1cccc(OCC3CCCCO3)c1)cn2[C@H]1C[C@@H](CN2CC[C@@H](O)C2)C1` (stereo partly drawn) [Example 33, (R)-1-(cis-3-{4-amino-5-[3-(tetrahydro-pyran-2-ylmethoxy)-phenyl]-pyrrolo[2,3-d]pyrimidin-7-yl}-cyclobutylmethyl)-pyrrolidin-3-ol], the IC50 was found to be 0.235 µM.

On to `CCOC(=O)c1nccn1C[C@H]1C[C@@H](n2cc(-c3cccc(OCC45CCC(CC4)O5)c3)c3c(N)ncnc32)C1` [Example 180], for which the IC50 was 0.057 µM.

As to `NC(=O)[C@@H]1[C@H](O)CCN1C[C@H]1C[C@@H](n2cc(-c3cccc(OCC4CCCO4)c3)c3c(N)ncnc32)C1` (stereo partly drawn) [Example 82, (2S,3R)-1-(cis-3-{4-amino-5-[3-(tetrahydro-furan-2-ylmethoxy)-phenyl]-pyrrolo[2,3-d]pyrimidin-7-yl}-cyclobutylmethyl)-3-hydroxy-pyrrolidine-2-carboxylic acid amide], the IC50 is 0.205 µM.

`Nc1ncnc2c1c(-c1cccc(OCC34CCC(CC3)O4)c1)cn2C1CCC(CN2CCS(=O)(=O)CC2)CC1` (stereo not shown) [Example 111, 7-[4-(1,1-Dioxo-thiomorpholin-4-ylmethyl)-cyclohexyl]-5-[3-(7-oxa-bicyclo[2.2.1]hept-1-ylmethoxy)-phenyl]-7H-pyrrolo[2,3-d]pyrimidin-4-ylamine] had an IC50 of 0.097 µM.

The compound `CC1(C)CCC(COc2cccc(-c3cn([C@H]4C[C@@H](CN5CCSC5)C4)c4ncnc(N)c34)c2)O1` (relative stereo) [Example 70, 5-[3-(5,5-dimethyl-tetrahydro-furan-2-ylmethoxy)-phenyl]-7-(cis-3-thiazolidin-3-ylmethyl-cyclobutyl)-7H-pyrrolo[2,3-d]pyrimidin-4-ylamine] registered an IC50 of 0.059 µM.

Source of the values: patent US20120165310A1, “ETHER DERIVATIVES OF BICYCLIC HETEROARYLS” (NOVARTIS AG, priority 2009, published 2012).
